Reference: US12317914B2, “Compositions and methods using one or more autophagy-inducing amino acids to potentiate musculoskeletal effect of one or more anabolic amino acids” (SOCIETE DES PRODUITS NESTLE S.A., priority 2019, dated 2025)

Test system: LC3 protein fused to ZsGreen
Assay: zebrafish autophagy reporter (LC3-ZsGreen, skeletal muscle specific promoter), number of LC3 punctae
Format: in vivo
Conditions: zebrafish larvae treated at 48 h post-fertilization, 0.25 to 10 mM, 16 hours of treatment
Procedure: After 16 hours of treatment larvae were anesthetized with 0.016% tricaine and imaged with ImageXpress confocal system at 20× magnification (Molecular Devices). Z stack images were captured for each larva and maximal projection images were produced. Number of LC3 punctae have been calculated with MetaXpress software (Moleculare Devices) and normalized by fish area.

Row | Structure (SMILES) | effect on autophagy (number of LC3 punctae normalized by fish area)
1 | CC(=O)N[C@@H](CS)C(=O)O [N-Acetyl Cysteine] | strongly induce autophagy
2 | N[C@@H](CS)C(=O)O [Cysteine] | strongly induce autophagy
3 | N[C@@H](CCC(=O)O)C(=O)O [Glutamate] | strongly induce autophagy
4 | CSCC[C@H](N)C(=O)O [Methionine] | strongly induce autophagy
5 | N[C@@H](Cc1ccc(O)cc1)C(=O)O [Tyrosine] | strongly induce autophagy
6 | NCC(=O)O [Glycine] | strongly induce autophagy
7 | N=C(N)NCCC[C@H](N)C(=O)O [Arginine] | reduce basal autophagy
8 | CC[C@H](C)[C@H](N)C(=O)O [Isoleucine] | reduce basal autophagy
9 | O=C(O)[C@@H]1CCCN1 [Proline] | strongly induce autophagy
10 | N[C@@H](CO)C(=O)O [Serine] | strongly induce autophagy
11 | CC(C)[C@H](N)C(=O)O [Valine] | strongly induce autophagy
12 | NC(=O)CC[C@H](N)C(=O)O [Glutamine] | reduce basal autophagy
13 | CC(C)C[C@H](N)C(=O)O [Leucine] | reduce basal autophagy
